US12324790B1, “Preparation method and application of micelle preparation containing thymol and derivative thereof” (Nanjing Mucosa Tech Co., Ltd., priority 2024, dated 2025)

Legend:
oral ulcer rats = test: Pharmacodynamic study in NaOH-induced oral ulcer rats; set-up: species or system SD rats; conditions: rat, in vivo
From the text: After 3 days of adaptive feeding, each rat was anesthetized and fixed on an operating table, the labial mucosa of the SD rat was dried with sterile cotton balls, and further sterile cotton balls were used for moisture isolation. A 3 mm×3 mm NaOH crystal was placed on the labial mucosa, and then removed after being maintained for 30 s. A treated area was wiped with sterile cotton balls containing normal saline to remove residual NaOH. […]
An area method was used to macroscopically evaluate the oral ulcer area, a maximum transverse diameter and longitudinal diameter of the ulcer were measured by vernier calipers, which were marked as d1 and d2, respectively, and a ulcer area was S=π×d1×d2×¼ (π=3.14). […]
The analysis was performed by t-test, and normally distributed quantitative data were expressed as mean±standard deviation (X, ±S), one-way ANOVA and LSD methods were used for pairwise comparison, and the Wilcoxon rank-sum test was used when the ANOVA conditions were not met. […]

[1] = States of preparations observed with the naked eyes (solubilization); format: physicochemical; conditions: water, without TPGS, apparent concentration 2 mg/ml
Experimental: A surfactant TPGS was selected for solubilization. Preparation method: 40 mg of THY was weighed and placed in a beaker, added with a certain amount of water and TPGS and magnetically stirred at room temperature for 24 h. In micelle preparations 2-8, mass ratios of THY to TPGS were 2:1, 1:1, 1:2.5, 1:5, 1:7, 1:10, 1:15, and 1:20, respectively.
40 mg of THY-Tos was weighed and placed in a beaker, and added with a certain amount of water and TPGS. For Preparations 2 to 5, the mass ratios of THY-Tos to TPGS were 1:1, 1:7, 1:10, and 1:15, respectively. The above micelle preparations were magnetically stirred for 24 h to obtain the final products.

Cc1ccc(C(C)C)c(OC(=O)CCC(=O)Oc2c(C)c(C)c3c(c2C)CC[C@@](C)(CCC[C@H](C)CCC[C@H](C)CCCC(C)C)O3)c1 [THY-Tos]
efficacy on an animal-based oral ulcer model compared with THY in combination with vitamin E (oral ulcer rats): not significantly different | solubility (in words) [1]: poor solubility
